Data published in patent US20220046925A1, “METHOD OF CONTROLLING PESTS BY SEED TREATMENT APPLICATION OF A MESOIONIC COMPOUND OR MIXTURE THEREOF” (BASF SE, priority 2018, published 2022).
Read-outs that look alike come from different tables or passages of the source. Marks after values point to notes of the source that are not given here.

How the values were obtained:
Format in all cases: in vivo
[1] = system: Frankliniella occidentalis (FRANOC); assay: Cotton seed treatment with mixtures against Frankliniella occidentalis (Colby synergy); settings: 7DAI
From the text: (§1) When the observed combined control effect is greater than the expected combined control effect (E), then the combined effect is synergistic.
(§2) Sub-lethal rates were predetermined by rate rundown. Formulations were combined and diluted in water and applied to cotton seeds which were allowed to dry. Seeds were then planted and grown in a greenhouse. At the cotyledon stage, western flower thrips (Frankliniella occidentalis) adults were infested onto each plant and held under laboratory conditions. Replication was 5×. Seven and 14 days after infestation, percent damage was visually assessed, and means were calculated for each treatment. Percent control was calculated as the percent reduction in live aphids relative to the solvent blank (Sun-Shepard method).

Elasmopalpus sp = assay: Soybean seed treatment against lesser corn stalkborer (cage)
Experimental: Soybean seed treatment: Soybean seeds were treated with Compound I-R-1. The treated seeds were sown inside an enclosed cage, in two lines at 29 seeds/cage. Thirty-five 3rd instar larvae of Elasmopalpus sp were introduced into each cage at six days after sowing. The number of dead and live plants were counted periodically.

[2] = system: Leptinotarsa decimlineata; assay: Potato seed piece treatment against Colorado potato beetle
Experimental: 8. Potato—Colorado Potato Beetle (Leptinotarsa decimlineata) Potato seed piece treatment: Seed potatoes were treated by spraying. After application, potatoes were allowed to dry prior to planting. The plots were laid out in 6-meter rows with 4 replications. Feeding damage assessments were taken at 42 and 50 days after planting.

Frankliniella fusca [3] = assay: Cotton seed treatment against tobacco thrips (field)
Experimental: Cotton seed treatment: Field studies were carried out against tobacco thrips using cotton seeds treated with 0.375 mg ai/seed of Compound I-R-1. Treated Seeds were sown in 30 sq m plots. There were 4 replications for each treatment. Feeding damage was assessed at 5 and 7 days after planting (DAP).

Rhopalosiphum padi = assay: Barley seed treatment against bird cherry oat aphid; settings: 100 g ai/100 kg seed, first true leaf stage
Experimental: Barley seed treatment: Technical material was dissolved in DMSO. Twenty barely seeds were treated with a vortex method and planted in a pot (2×2 inch) filled with Rediearth soil. One seed was planted per pot and the pots were arranged in a completely randomized design, held in the greenhouse, and top-watered and fertilized daily. Four seedlings were taken from each cotyledon & true leaf treatment samples. DMSO solvent blank were used as positive and negative treatments, respectively. The true leaf stage was infested 14 days after planting (DAP). Ten bird cherry-oat aphids of mixed stages were transferred individually to each plant with a paint brush. Six replicates were set up for each treatment. After infestation, plants were kept on a light cart at room temperature and bottom watered until evaluated. The number of live aphids at 4 days after infestation (4DAI) was recorded, and means were calculated for each treatment. Percent control was calculated as the percent reduction in live aphids relative to the solvent blank.

Myzus persicae = assay: Sugarbeet seed treatment against green peach aphid
Experimental: Sugarbeet seed treatment: Seeds were treated in according to desired rates. Seeds were planted (one per pot) at a depth of 1.5 cm in 3×3 in (58.0644 cm2) pots that were filled with RediEarth soil and moistened prior to planting. Pots were held in a completely randomized design in the greenhouse and automatically top watered and fertilized [NPK 16-4-20-3(Ca)-1(Mg)] daily (4 min, 4× a day) until infestation. A set of plants was infested 7, 14, 21 and 28 days after treatment (DAT). Thirty aphids were transferred individually to each plant with a paint brush. After infestation, plants were kept on a light cart at room temperature with continuous light and bottom watered until evaluation. Six days after infestation (DAI), the number of live aphids was recorded, and means were calculated for each treatment. Percent control was calculated as the percent reduction in live aphids relative to the solvent blank.

Frankliniella fusca [4] = assay: Peanut seed treatment against tobacco thrips (field)
Experimental: Peanut seed treatment: Field trials were laid out. Treated peanut seeds were sown in 8 sq m plots using 4 replications. Feeding damage was assessed at 28 and 35 days after treatment.

Dichelops melacanthus = assay: Corn seed treatment against green belly stink bug (cage); settings: for mortality at 30 g/ha: Dichelops melacanthus
Experimental: Corn seed treatment: Corn seeds were treated with Compound I-R-1. The treated seeds were sown inside an enclosed cage, at 16 seeds/cage. Twenty-four stinkbugs, were introduced into each cage. The number of dead and live stinkbugs were counted periodically.

[5] = system: Rhopalosiphum padi (RHOPPA); assay: Barley seed treatment with mixtures against Rhopalosiphum padi (Colby synergy); settings: cotyledon stage, 4 days after infestation
From the text: as §1
as §2, with “barley” for “cotton”, “bird cherry-oat aphids (Rhopalosiphum padi) of mixed stages” for “western flower thrips (Frankliniella occidentalis) adults”, “6×. Four” for “5×. Seven and 14”, “the number of live aphids on each plant” for “percent damage”, “recorded,” for “visually assessed,”

Phyllotreta striolata = assay: Canola seed treatment against striped flea beetle; settings: rate 400 (unit not given), 300 g ai/L formulation, cotyledon stage
Experimental: Canola seed treatment: Formulation was diluted in water to make appropriate concentration according to needs. Canola seeds with pre-coating inert ingredients were treated with diluted solution by vortex methods. Treated seeds were dried in ventilating chemical hood. After dry, three seeds were planted per pot (2×2 inch) at a depth of 1 cm, which were filled with Patio sand and watered prior to treatment and planting. The pots were arranged in a completely randomized design, kept in the greenhouse, and automatically top-watered and fertilized daily (NPK 16-4-20-3(Ca)-1(Mg)). At the cotyledon stage [˜7 days after treatment (DAT)], plants were thinned to 1 plant per pot. One set of plants was infested at the cotyledon stage and another set at the first true-leaf stage. Both cotyledons of a single plant were excised, and true leaves were sampled using a ⅝″ (1.59-cm) diameter leaf disc. Leaf samples were placed on a piece of 47-mm filter paper moistened with 0.225 mL distilled water in a 50-mm Petri dish. Five flea beetles were then infested into the petri dish. The dishes were held in an incubator at 27° C., 60% RH, and a 16L:8D light cycle. Five days after infestation (DAI), the numbers of live, moribund, and dead flea beetles were recorded, as well as % feeding damage (via visual estimate). […] Percent mortality was calculated for each treatment, with moribund insects classified as alive.

## C[n+]1c([O-])c(-c2ccccc2)c(=O)n2c1SC[C@@H]2c1cnc(Cl)s1 (single isomer, unassigned) [Compound I-R-1]
[1]; use rate 0.375 (head: g ai/100 kg seeds)
  % activity (feeding damage reduction), solo application: 19%
Elasmopalpus sp
  efficacy against Elasmopalpus sp. in terms of plant protection (in words): good efficacy
Elasmopalpus sp; 50 g ai/ha, assessment A03
  Number of dead plants/plot, A03: 1.50 a
Elasmopalpus sp; 50 g ai/ha, assessment A07
  Number of dead plants/plot, A07: 4.50 ab
Elasmopalpus sp; 50 g ai/ha, assessment A14
  Number of dead plants/plot, A14: 5.25 b
Elasmopalpus sp; 50 g ai/ha, assessment A21
  Number of dead plants/plot, A21: 6.75 b
[2]
  efficacy against L. decimlineata regarding reduction in feeding damage (in words): good efficacy
[2]; 400 g ai/ha, 42 days after planting
  Feeding damage, A42: 3.0 b
[2]; 400 g ai/ha, 50 days after planting
  Feeding damage, A50: 11.3 bc
Frankliniella fusca [3]
  efficacy against F. fusca in terms of reduction in feeding damage (in words): excellent efficacy
Frankliniella fusca [3]; 0.375 mg ai/seed, field, 5 DAP
  Feeding damage (%), 5 DAP: 6.0 b %
Frankliniella fusca [3]; 0.375 mg ai/seed, field, 7 DAP
  Feeding damage (%), 7 DAP: 12.5 c %
Rhopalosiphum padi
  Mean % Population Reduction (18 DAP, 4DAI): ≥90%
Myzus persicae; sugar beet seed treatment, 80 g ai/1 kg seed, infested 7 DAP, 6DAI
  Mean % Population Reduction Relative to SB @ 6DAI, 7 DAP: 100%
Myzus persicae; sugar beet seed treatment, 80 g ai/1 kg seed, infested 14 DAP, 6DAI
  Mean % Population Reduction Relative to SB @ 6DAI, 14 DAP: ≥90%
Myzus persicae; sugar beet seed treatment, 80 g ai/1 kg seed, infested 21 DAP, 6DAI
  Mean % Population Reduction Relative to SB @ 6DAI, 21 DAP: ≥90%
Myzus persicae; sugar beet seed treatment, 80 g ai/1 kg seed, infested 28 DAP, 6DAI
  Mean % Population Reduction Relative to SB @ 6DAI, 28 DAP: ≥90%
Myzus persicae; sugarbeet seed treatment
  activity against green peach aphid by sugarbeet seed treatment (in words): excellent activity
Myzus persicae; sugarbeet seed treatment, 4 weeks after plant
  activity as far as 4 weeks after plant (in words): excellent activity
Frankliniella fusca [4]
  efficacy against F. fusca in terms of reduction in feeding damage (in words): good efficacy
Frankliniella fusca [4]; 0.68 mg ai/seed, field, 28 days after treatment
  Feeding damage (%), A28: 13.0 b %
Frankliniella fusca [4]; 0.68 mg ai/seed, field, 35 days after treatment
  Feeding damage (%), A35: 13.5 b %
Dichelops melacanthus; read-out: Percentage mortality (%), A01
  mortality at 30 g/ha: 5.4%
Dichelops melacanthus; read-out: Percentage mortality (%), A03
  mortality at 30 g/ha: 24.6%
Dichelops melacanthus; read-out: Percentage mortality (%), A07
  mortality at 30 g/ha: 13%
Dichelops melacanthus; read-out: Percentage mortality (%), A14
  mortality at 30 g/ha: 35.3%
Dichelops melacanthus; read-out: Percentage mortality (%), A21
  mortality at 30 g/ha: 61.5%
Dichelops melacanthus; corn seed treatment
  efficacy against green belly stink bug (in words): good efficacy
[5]; 5 g ai/100 kg seeds
  % activity (population reduction), solo application: 46%
[5]; 14 g ai/100 kg seeds
  % activity (population reduction), solo application: 59%
Phyllotreta striolata; 5DAI, 13DAP
  Mean % feeding damage (5DAI, 13DAP): 19^b %
Phyllotreta striolata; relative to solvent blank
  Mean % Feeding Damage Reduction Relative to SB: 58%

## CCN(C(=O)c1cnn(C(C)C(C)C)c1C)c1ccnnc1 (stereo not drawn) [Dimpropyridaz, 1-(1,2-dimethylpropyl)-N-ethyl-5-methyl-N-pyridazin-4-yl-pyrazole-4-carboxamide]
[5]; 18 g ai/100 kg seeds
  % activity (population reduction), solo application: 5%
[5]; 46 g ai/100 kg seeds
  % activity (population reduction), solo application: 11%

## O=C1C=C(N(Cc2ccc(Cl)nc2)CC(F)F)CO1 [Flupyradifurone]
[5]; 21 g ai/100 kg seeds
  % activity (population reduction), solo application: 36%

## CN1COCN(Cc2cnc(Cl)s2)/C1=N\[N+](=O)[O-] [thiamethoxam, reference compound]
[1]; use rate 0.300 (head: g ai/100 kg seeds)
  % activity (feeding damage reduction), solo application: 37%
